Laboratory results published in patent publication US4272437A, “Antibacterial agents, and 4-thio azetidinone intermediates” (priority 1979, dated 1981).
Values after ≈ are worked out from the molar mass of the structure shown. Read-outs that look alike come from different tables or passages of the source.

What was measured:
[1] = test system: Str. pneumoniae A-9585; assay: MIC, tube dilution, Streptococcus pneumoniae A9585; format: cell-based; details: Streptococcus pneumoniae, A9585, Str. pneumoniae A9585; overnight 37° C., Nutrient Broth; read-out: Minimum Inhibitory Concentration (M.I.C.)
Excerpt: (§1) Representative compounds of the present invention were subjected to in vitro antibiotic screening against a variety of microorganisms.

[2] = test system: Str. pyogenes A-9604; assay: MIC, tube dilution, Streptococcus pyogenes A9604; format: cell-based; details: Streptococcus pyogenes, A9604, Str. pyogenes A9604; overnight 37° C., Nutrient Broth; read-out: Minimum Inhibitory Concentration (M.I.C.)
Excerpt: as §1

[3] = test system: Staph. aureus A-9537; assay: MIC, tube dilution, Staphylococcus aureus A9537; format: cell-based; details: Staphylococcus aureus, A9537, Staph. aureus A9537; overnight 37° C., Nutrient Broth; read-out: Minimum Inhibitory Concentration (M.I.C.)
Excerpt: as §1

[4] = test system: Staph. aureus A-9537 and 50% serum; assay: MIC, tube dilution, Staph. aureus A9537 + 50% serum; format: cell-based, Staphylococcus aureus; details: Staphylococcus aureus, overnight 37° C., read-out: Minimum Inhibitory Concentration (M.I.C.)
Excerpt: as §1

[5] = test system: Staph. aureus (Pen-Res) A-9606; assay: MIC, tube dilution, Staphylococcus aureus A9606 (Pen-Res); format: cell-based; details: Staphylococcus aureus, overnight 37° C.
Excerpt: as §1

[6] = test system: Staph. aureus (Meth-Res) A-15097; assay: MIC, tube dilution, Staphylococcus aureus A15097 (Meth-Res); format: cell-based; details: Staphylococcus aureus, overnight 37° C.
Excerpt: as §1

[7] = test system: Str. faecalis A-20688; assay: MIC, tube dilution, Streptococcus faecalis A20688; format: cell-based; details: Enterococcus faecalis, A20688, Str. faecalis A20688; overnight 37° C.; read-out: Minimum Inhibitory Concentration (M.I.C.)
Excerpt: as §1

[8] = test system: E. coli A-15119; assay: MIC, tube dilution, Escherichia coli A15119; format: cell-based; details: Escherichia coli, A15119, E. coli A15119; overnight 37° C.; read-out: Minimum Inhibitory Concentration (M.I.C.)
Excerpt: as §1

[9] = test system: E. coli A-20341-1; assay: MIC, tube dilution, Escherichia coli A20341-1; format: cell-based
Excerpt: as §1

[10] = test system: K. pneumoniae A-15130; assay: MIC, tube dilution, Klebsiella pneumoniae A15130; format: cell-based; details: Klebsiella pneumoniae, A15130, K. pneumoniae A15130; overnight 37° C.; read-out: Minimum Inhibitory Concentration (M.I.C.)
Excerpt: as §1

[11] = test system: Klebsiella species A20468; assay: MIC, tube dilution, Klebsiella species A20468; format: cell-based; details: Klebsiella species (K. pneumoniae) A20468; overnight 37° C.; read-out: Minimum Inhibitory Concentration (M.I.C.)
Excerpt: as §1

[12] = test system: Pr. mirabilis A-9900; assay: MIC, tube dilution, Proteus mirabilis A9900; format: cell-based; details: Proteus mirabilis, A9900, Proteus mirabilis A9900; overnight 37° C.; read-out: Minimum Inhibitory Concentration (M.I.C.)
Excerpt: as §1

[13] = test system: Pr. vulgaris A-9716; assay: MIC, tube dilution, Proteus vulgaris / Proteus mirabilis A9716; format: cell-based, Proteus vulgaris (name changed to Proteus mirabilis); details: Proteus vulgaris, overnight 37° C.
Excerpt: as §1

[14] = test system: Pr. morganii A-15153; assay: MIC, tube dilution, Proteus morganii A15153; format: cell-based; details: Morganella morganii, A15153, Proteus morganii A15153; overnight 37° C.; read-out: Minimum Inhibitory Concentration (M.I.C.)
Excerpt: as §1

[15] = test system: Ser. marcescens A-20019; assay: MIC, tube dilution, Serratia marcescens A20019; format: cell-based; details: Serratia marcescens, A20019, Serratia marcescens A20019; overnight 37° C.; read-out: Minimum Inhibitory Concentration (M.I.C.)
Excerpt: as §1

[16] = test system: Ent. cloacae A-9659; assay: MIC, tube dilution, Enterobacter cloacae A9659; format: cell-based; details: Enterobacter cloacae, A9659, Enterobacter cloacae A9659; overnight 37° C.; read-out: Minimum Inhibitory Concentration (M.I.C.)
Excerpt: as §1

[17] = test system: Ent. cloacae A-9656; assay: MIC, tube dilution, Enterobacter cloacae A9656; format: cell-based; details: overnight 37° C., read-out: Minimum Inhibitory Concentration (M.I.C.)
Excerpt: as §1

[18] = test system: Ps. aeruginosa A-9843A; assay: MIC, tube dilution, Pseudomonas aeruginosa A9843A; format: cell-based; details: Pseudomonas aeruginosa, A9843A, read-out: Minimum Inhibitory Concentration (M.I.C.), Pseudomonas aeruginosa A9843A; overnight 37° C.
Excerpt: as §1

[19] = test system: Ps. aeruginosa A-21213; assay: MIC, tube dilution, Pseudomonas aeruginosa A21213; format: cell-based; details: overnight 37° C., read-out: Minimum Inhibitory Concentration (M.I.C.)
Excerpt: as §1

[20] = test system: Proteus rettgeri A21203; assay: MIC, tube dilution, Proteus rettgeri A21203; format: cell-based; details: Providencia rettgeri, overnight 37° C., read-out: Minimum Inhibitory Concentration (M.I.C.)
Excerpt: as §1

[21] = read-out: Minimum Inhibitory Concentration (M.I.C.), Staph. aureus A9606 (Pen-Res)
[22] = read-out: Minimum Inhibitory Concentration (M.I.C.), Staph. aureus A15097 (Meth-Res)
[23] = Escherichia coli, A203411; E. coli A20341-1; overnight 37° C.; read-out: Minimum Inhibitory Concentration (M.I.C.)
[24] = A9716, read-out: Minimum Inhibitory Concentration (M.I.C.), Proteus vulgaris / Proteus mirabilis A9716
[25] = Staph. aureus A9606 (Pen-Res), read-out: Minimum Inhibitory Concentration (M.I.C.)
[26] = A9716, Proteus vulgaris / Proteus mirabilis A9716, read-out: Minimum Inhibitory Concentration (M.I.C.)
[27] = Enterobacter cloacae, A9656, Enterobacter cloacae A9656
[28] = A21203, Proteus rettgeri A21203

SMILES	MIC [1]	MIC [2]	MIC [3]	MIC [4]	MIC [5, 21]	MIC [6, 22]	MIC [7]	MIC [8]	MIC [9, 23]	MIC [10]	MIC [11]	MIC [12]	MIC [14]	MIC [15]	MIC [16]	MIC ([17]; Enterobacter cloacae A9656)	MIC [18]	MIC ([19]; Pseudomonas aeruginosa A21213)	MIC ([20]; Proteus rettgeri A21203)	MIC [13, 26]	other results
O=C(O)C1=C(C(F)(F)F)SC2CC(=O)N12 (centres unmarked) [Example 17, Sodium 2-Trifluoromethylpenem-3-carboxylate]	> 8 µg/mL	> 8 µg/mL	> 8 µg/mL	> 63 µg/mL	> 125 µg/mL	> 125 µg/mL	> 125 µg/mL	125 µg/mL	> 125 µg/mL	> 125 µg/mL	> 125 µg/mL	> 125 µg/mL	> 125 µg/mL	> 125 µg/mL	> 125 µg/mL	> 125 µg/mL	125 µg/mL	125 µg/mL	125 µg/mL	–	MIC [13, 24]: > 125 µg/mL
O=C(O)C1=C(Cc2cscn2)SC2CC(=O)N12 (centres unmarked) [Example 18, 2-(4'-Thiazolyl)methylpenem-3-carboxylic Acid]	125 µg/mL (≈ 466 µM)	> 125 µg/mL	125 µg/mL (≈ 466 µM)	> 63 µg/mL	> 125 µg/mL	> 125 µg/mL	> 125 µg/mL	> 125 µg/mL	> 125 µg/mL	> 125 µg/mL	125 µg/mL (≈ 466 µM)	> 125 µg/mL	125 µg/mL (≈ 466 µM)	> 125 µg/mL	> 125 µg/mL	> 125 µg/mL	125 µg/mL (≈ 466 µM)	125 µg/mL (≈ 466 µM)	125 µg/mL (≈ 466 µM)	–	MIC [13, 24]: 125 µg/mL (≈ 466 µM)
O=C(O)C1=CSC2CC(=O)N12 (centres unmarked) [Example 19, Penem-3-carboxylic Acid]	0.5 µg/mL (≈ 2.92 µM)	2 µg/mL (≈ 11.7 µM)	4 µg/mL (≈ 23.4 µM)	63 µg/mL	–	–	125 µg/mL (≈ 730 µM)	8 µg/mL (≈ 46.7 µM)	–	16 µg/mL (≈ 93.5 µM)	> 125 µg/mL	16 µg/mL (≈ 93.5 µM)	16 µg/mL (≈ 93.5 µM)	16 µg/mL (≈ 93.5 µM)	16 µg/mL (≈ 93.5 µM)	–	63 µg/mL (≈ 368 µM)	–	–	16 µg/mL (≈ 93.5 µM)	MIC [5, 25]: 8 µg/mL (≈ 46.7 µM); MIC ([6]; Staph. aureus A15097 (Meth-Res), read-out: Minimum Inhibitory Concentration (M.I.C.)): 63 µg/mL (≈ 368 µM); MIC ([9]; Escherichia coli, A203411, E. coli A20341-1; overnight 37° C.; read-out: Minimum Inhibitory Concentration (M.I.C.)): 16 µg/mL (≈ 93.5 µM); MIC [17, 27]: 16 µg/mL (≈ 93.5 µM); MIC ([19]; Pseudomonas aeruginosa, A21213, Pseudomonas aeruginosa A21213): 125 µg/mL (≈ 730 µM); MIC [20, 28]: 16 µg/mL (≈ 93.5 µM)
Cc1cc(CC2=C(C(=O)O)N3C(=O)CC3S2)on1 (centres unmarked) [Example 20]	8 µg/mL (≈ 30 µM)	63 µg/mL (≈ 237 µM)	> 125 µg/mL	> 63 µg/mL	> 125 µg/mL	> 125 µg/mL	> 125 µg/mL	> 125 µg/mL	> 125 µg/mL	> 125 µg/mL	> 125 µg/mL	> 125 µg/mL	125 µg/mL (≈ 469 µM)	> 125 µg/mL	> 125 µg/mL	> 125 µg/mL	125 µg/mL (≈ 469 µM)	125 µg/mL (≈ 469 µM)	125 µg/mL (≈ 469 µM)	–	MIC [13, 24]: 125 µg/mL (≈ 469 µM)
O=C(O)C1=C(C2CCC2)SC2CC(=O)N12 (centres unmarked) [Example 21, 2-Cyclobutylpenem-3-carboxylic Acid]	0.13 µg/mL (≈ 0.577 µM)	1 µg/mL (≈ 4.44 µM)	0.13 µg/mL (≈ 0.577 µM)	> 63 µg/mL	–	> 125 µg/mL	16 µg/mL (≈ 71 µM)	4 µg/mL (≈ 17.8 µM)	125 µg/mL (≈ 555 µM)	16 µg/mL (≈ 71 µM)	> 125 µg/mL	2 µg/mL (≈ 8.88 µM)	16 µg/mL (≈ 71 µM)	16 µg/mL (≈ 71 µM)	16 µg/mL (≈ 71 µM)	–	125 µg/mL (≈ 555 µM)	125 µg/mL (≈ 555 µM)	–	2 µg/mL (≈ 8.88 µM)	MIC [5, 25]: 8 µg/mL (≈ 35.5 µM); MIC [17, 27]: 32 µg/mL (≈ 142 µM); MIC [20, 28]: 4 µg/mL (≈ 17.8 µM)
CON=C(C)CC1=C(C(=O)O)N2C(=O)CC2S1 (centres unmarked) [Example 44, Sodium 2-(Acetonylmethyl oxime)-penem-3-carboxylate]	2 µg/mL	16 µg/mL	32 µg/mL	> 63 µg/mL	> 125 µg/mL	> 125 µg/mL	125 µg/mL	63 µg/mL	> 125 µg/mL	> 125 µg/mL	> 125 µg/mL	63 µg/mL	125 µg/mL	> 125 µg/mL	> 125 µg/mL	> 125 µg/mL	125 µg/mL	125 µg/mL	125 µg/mL	63 µg/mL	–
Nc1ccccc1CC1=C(C(=O)O)N2C(=O)CC2S1 (centres unmarked) [Example 45, Sodium 2-(2'-Aminophenyl)methylpenem-3-carboxylate]	0.5 µg/mL	1 µg/mL	1 µg/mL	63 µg/mL	–	125 µg/mL	125 µg/mL	125 µg/mL	125 µg/mL	125 µg/mL	125 µg/mL	32 µg/mL	125 µg/mL	125 µg/mL	125 µg/mL	125 µg/mL	125 µg/mL	125 µg/mL	–	63 µg/mL	MIC [5, 25]: 4 µg/mL; MIC [20, 28]: 63 µg/mL
